Legend:
Assay in all cases: relative viability (nuclei count vs DMSO), 5 days (fraction); higher = more cells survive
[1] = compound: Nc1ccccc1NC(=O)c1ccc(CNC(=O)OCc2cccnc2)cc1 [Entinostat] + Cc1nc(Nc2ncc(C(=O)Nc3c(C)cccc3Cl)s2)cc(N2CCN(CCO)CC2)n1 [Dasatinib] (partner 0.075 µM)
In short: (§1)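 Relative viability is defined as nuclei in treated wells over nuclei in vehicle wells. Duplicate plates were run and medians reported. Lung cancer cell lines in 1536-well plates were dosed by pin tool one day after seeding, with one drug or with a fixed anchor-drug dose plus five library-drug doses (not always all listed) in √10 steps, and nuclei were counted after 5 days.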

[2] = compound: C1COCCN1C2=NC(=NC3=C2OC4=C3C=CC=N4)C5=CC(=CC=C5)NC(=O)C6=CN=C(C=C6)N + COc1cccc2cc(-c3nc([C@H]4CC[C@H](C(=O)O)CC4)n4ncnc(N)c34)[nH]c12 [OSI-027] (partner 0.5 µM)
In short: as §1

[3] = compound: Nc1ccccc1NC(=O)c1ccc(CNC(=O)OCc2cccnc2)cc1 [Entinostat] + Cc1nc(NC(=O)N2CCC[C@H]2C(N)=O)sc1-c1ccnc(C(C)(C)C(F)(F)F)c1 [Alpelisib] (partner 2 µM)
In short: as §1

[4] = compound: C1COCCN1C2=NC(=NC3=C2OC4=C3C=CC=N4)C5=CC(=CC=C5)NC(=O)C6=CN=C(C=C6)N + CS(=O)(=O)N1CCN(Cc2cc3nc(-c4cccc5[nH]ncc45)nc(N4CCOCC4)c3s2)CC1 [Pictilisib] (partner 1 µM)
In short: as §1

Which results are given for UMC-11?
relative viability ([1]; first compound 0.02 µM): 0.468; relative viability ([1]; first compound 0.06325 µM): 0.478; relative viability ([1]; first compound 0.2 µM): 0.399; relative viability ([1]; first compound 0.6325 µM): 0.193; relative viability ([1]; first compound 2 µM): 0.17; relative viability ([2]; first compound 0.02 µM): 0.443; relative viability ([2]; first compound 0.06325 µM): 0.511; relative viability ([2]; first compound 0.2 µM): 0.46; relative viability ([2]; first compound 0.6325 µM): 0.406; relative viability ([2]; first compound 2 µM): 0.375; relative viability ([3]; first compound 0.02 µM): 1.12; relative viability ([3]; first compound 0.06325 µM): 1.01; relative viability ([3]; first compound 0.2 µM): 0.702; relative viability ([3]; first compound 0.6325 µM): 0.168; relative viability ([3]; first compound 2 µM): 0.116; relative viability ([4]; first compound 0.02 µM): 0.837; relative viability ([4]; first compound 0.06325 µM): 0.875; relative viability ([4]; first compound 0.2 µM): 0.791; relative viability ([4]; first compound 0.6325 µM): 0.776; relative viability ([4]; first compound 2 µM): 0.598
